Measured values reported in patent publication US6903089B1, “Lactam-substituted pyrazolopyridine derivatives” (Bayer Aktiengesellschaft, priority 2000, dated 2005).

Tested on: rabbit aorta rings
Test: Vasorelaxant effect in vitro (phenylephrine-contracted rabbit aorta rings)
Conditions: Oryctolagus cuniculus, contraction generated by phenylephrine, concentration reducing height of control contraction by 50%
Protocol: Rabbits are stunned by a blow to the back of the neck and are exsanguinated. The aorta is removed, freed of adherent tissue, divided into rings 1.5 mm wide and put singly under tension in 5 ml organ baths containing carbogen-gassed Krebs-Henseleit solution at 37° C. with the following composition (mM): NaCl: 119; KCl: 4.8; CaCl2×2H2O: 1; MgSO4×7 H2O: 1.4; KH2PO4: 1.2; NaHCO3: 25; glucose: 10. The force of contraction is detected with Statham UC2 cells, amplified and digitized via A/D converters (DAS-1802 HC, Keithley Instruments Munich) and recorded in parallel on chart recorders. A contraction is generated by adding phenylephrine to the bath cumulatively in increasing concentration. After several control cycles, the substance to be investigated is investigated in each further run in increing dosage in each case, and the height of the contraction is compared with the height of the contraction reached in the last preceding run. The concentration necessary to reduce the height of the control value by 50% (IC50) is calculated from this. The standard application volume is 5 μl, and the DMSO content in the bath solution corresponds to 0.1%.

SMILES	IC50 [µM]
Nc1nc(-c2nn(Cc3ccccc3F)c3ncccc23)ncc1N1CCCC1=O [Example 2]	1.1
Nc1nc(-c2nn(Cc3ccccc3F)c3ncccc23)ncc1N1CCCCC1=O [Example 3]	1.99
Nc1nc(-c2nn(Cc3ccccc3F)c3ncccc23)ncc1N1CCCCCC1=O [Example 5]	1.05
CC1(C)CN(c2cnc(-c3nn(Cc4ccccc4F)c4ncccc34)nc2N)C(=O)C1(C)C [Example 9]	0.7
CC1C(=O)N(c2cnc(-c3nn(Cc4ccccc4F)c4ncccc34)nc2N)C(=O)C1(C)C (centres unmarked) [Example 13]	0.69
CC1(C)OC(=O)N(c2cnc(-c3nn(Cc4ccccc4F)c4ncccc34)nc2N)C1=O [Example 14, 3-{4-Amino-2-[1-(2-fluorobenzyl)-1H-pyrazolo[3,4-b]pyridin-3-yl]-5-pyrimidinyl}-5,5-dimethyl-1,3-oxazolidine-2,4-dione]	0.42
Nc1nc(-c2nn(Cc3ccccc3F)c3ncccc23)ncc1N1CCOC1=O [Example 15]	1.2
Nc1nc(-c2nn(Cc3ccccc3F)c3ncccc23)ncc1N1CCSC1=O [Example 16]	1.23
CC12CC1C(=O)N(c1cnc(-c3nn(Cc4ccccc4F)c4ncccc34)nc1N)C2=O (centres unmarked) [Example 19]	0.41
CC(=O)Nc1nc(-c2nn(Cc3ccccc3F)c3ncccc23)ncc1N1CCOC1=O [Example 21, N-[2-[1-(2-Fluorebenzyl)-1H-pyrazolo[34-b]pyridin-3-yl]-5-(2-oxo-1,3-oxazolidin-3-yl)-4-pyrimidinyl]acetamide]	0.25
Nc1nc(-c2nn(Cc3ccccc3F)c3ncccc23)ncc1N1C(=O)c2ccccc2C1=O [Example 22, 2-{4-Amino-2-[1-(2-fluorobenzyl)-1H-pyrazolo[3,4-b]pyridin-3-yl]-5-pyrimidinyl}-1H-isoindole-1,3(2H)-dione]	0.6
